Key:
[1] = Induction of chondrogenesis in human MSC assessed as maximum activity at 300 nM incubated for 6 days by rhodamine B and Nile red staining based imaging analysis relative to control; assay type: functional; details: BMMSC, 144 h, time 6 day
[2] = target: Dual specificity tyrosine-phosphorylation-regulated kinase 1A (Homo sapiens, UniProt Q13627); assay: Inhibition of recombinant DYRK1A (unknown origin) using Ser/Thr 18 peptide as substrate incubated for 1 hr in presence of ATP by FRET assay
[3] = Induction of chondrogenesis in human MSC assessed as incubated for 6 days by rhodamine B and Nile red staining based imaging analysis; assay type: functional; details: bmmsc
[4] = Effect on Wnt signaling pathway in human SW480 cells harbouring TCF/LEF luciferase reporter gene and SP5-Luc reporter gene incubated for 36 to 48 hrs by luminescence assay; assay type: cell-based

Row | SMILES | EC50 [2] [nM] | EC50 [3] [nM] | EC50 [4] [nM] | Emax at 0.3 µM [1] [%]
1 | Nc1cncc(-c2ccc3[nH]nc(-c4nc5c(-c6ccccc6F)nccc5[nH]4)c3n2)c1 | 8 | 10 | > 10000 | 108
2 | COc1ccc(NC(=O)c2n[nH]c3ccc(-c4cncc(CN5CCCCC5)c4)cc23)cn1 | 1 | 300 | 15 | 138
3 | CC(C)(C)C(=O)Nc1cncc(-c2ccc3[nH]nc(-c4nc5c(-c6ccc(F)s6)ccnc5[nH]4)c3c2)c1 | 98 | 30 | 16.7 | 120
4 | COc1cccc(-c2cncc3[nH]c(-c4n[nH]c5ccc(-c6cccnc6)nc45)nc23)c1 | 30 | 30 | > 10000 | 59.2
5 | O=C(Nc1ccnc(C(F)(F)F)c1)c1n[nH]c2ccc(-c3cncc(CN4CCCCC4)c3)cc12 | 4 | 100 | 36.4 | 69
6 | Nc1cncc(-c2cnc3[nH]nc(-c4nc5c(-c6ccccc6F)ccnc5[nH]4)c3c2)c1 | 50 | 300 | 12.3 | 59.9
7 | CN1CCN(c2cccc3[nH]c(-c4n[nH]c5ccc(-c6cncc(CN7CCCCC7)c6)cc45)cc23)CC1 | 35 | 100 | 4970 | 198
8 | CCC(=O)Nc1cncc(-c2ccc3[nH]nc(-c4nc5c(N6CCCCC6)cncc5[nH]4)c3n2)c1 | 16 | 900 | > 10000 | 69.8
9 | Fc1cccc(-c2ccnc3[nH]c(-c4n[nH]c5ncc(-c6cn[nH]c6)cc45)nc23)c1 | 16 | 100 | 30.2 | 110
10 | CN1CCN(c2nccc3[nH]c(-c4n[nH]c5ccc(-c6cncc(CN7CCCCC7)c6)nc45)cc23)CC1 | 15 | 10 | 4160 | 70.8
11 | O=C(Nc1cncc(-c2ccc3[nH]nc(-c4nc5c(-c6ccc(F)cc6)cncc5[nH]4)c3c2)c1)C1CCC1 | 73 | 100 | 5.7 | 203
12 | O=C(Nc1cncc(-c2cnc3[nH]nc(-c4nc5c(-c6cccc(F)c6)cncc5[nH]4)c3c2)c1)C1CC1 | 75 | 10 | 11 | 148

Continued, in another order:

Row | EC50 [2] [nM] | EC50 [3] [nM] | EC50 [4] [nM] | SMILES | Emax at 0.3 µM [1] [%]
13 | 51 | 300 | > 10000 | CN1CCN(c2ccnc3[nH]c(-c4n[nH]c5cnc(-c6cncc(CNCC7CCCC7)c6)cc45)cc23)CC1 | 150
14 | 44 | 30 | 43.5 | CC(C)Nc1cncc(-c2ccc3[nH]nc(-c4nc5c(-c6ccoc6)nccc5[nH]4)c3c2)c1 | 90.2
15 | 31 | 30 | 197 | Nc1cncc(-c2cnc3[nH]nc(-c4cc5c(-c6ccccc6F)nccc5[nH]4)c3c2)c1 | 86
16 | 11 | 30 | > 10000 | O=C(Nc1cncc(-c2ccc3[nH]nc(-c4cc5c(-c6ccncc6)nccc5[nH]4)c3c2)c1)C1CCCC1 | 114
17 | 63 | 10 | 30.5 | Fc1ccccc1-c1nccc2[nH]c(-c3n[nH]c4cnc(-c5cn[nH]c5)cc34)cc12 | 89.2
18 | 71 | 10 | 575 | CN(C)Cc1cncc(-c2ccc3[nH]nc(-c4cc5c(N6CCCCC6)cccc5[nH]4)c3c2)c1 | 205
19 | 52 | 10 | 18.9 | Cc1ccncc1-c1ccc2[nH]nc(-c3nc4c(-c5ccsc5)nccc4[nH]3)c2c1 | 156
20 | 12 | 300 | 3060 | CN(C)c1cncc(-c2cc3c(-c4cc5cnccc5[nH]4)n[nH]c3cn2)c1 | 101
